Experimental data as given in US8440646B1 (priority 2006, dated 2013).
Converted amounts (≈) assume the structure as drawn. Where two headings read alike, the source gives them in different places.

Experiments:
S. pneumoniae 700905 [1] = system: S. pneumoniae 700905; set-up: species or system mice; settings: mouse, in vivo
B. anthracis Sterne = test: microbe, parasite or virus in culture; type: cell-based; settings: Bacillus anthracis
B. anthracis Ame = test: microbe, parasite or virus in culture; type: cell-based; settings: Bacillus anthracis
S. pneumoniae 157E [2] = system: S. pneumoniae 157E; set-up: species or system mice; settings: mouse, in vivo
B. anthracis V770 = test: microbe, parasite or virus in culture; type: cell-based; settings: Bacillus anthracis
B. anthracis Vollum1B = test: microbe, parasite or virus in culture; type: cell-based; settings: Bacillus anthracis
B. cereus 95/3032 = test: microbe, parasite or virus in culture; type: cell-based; settings: Bacillus cereus
B. cereus 98/2658 = test: microbe, parasite or virus in culture; type: cell-based; settings: Bacillus cereus
B. cereus 97/4144 = test: microbe, parasite or virus in culture; type: cell-based; settings: Bacillus cereus
B. cereus 98/2620 = test: microbe, parasite or virus in culture; type: cell-based; settings: Bacillus cereus
S. pneumoniae 700905 [3] = test: microbe, parasite or virus in culture; type: cell-based; settings: Streptococcus pneumoniae
E. faecium 494 = test: microbe, parasite or virus in culture; type: cell-based; settings: Enterococcus faecium
S. pneumoniae PBS1339 = system: S. pneumoniae PBS1339; set-up: species or system mice; settings: mouse, in vivo
S. aureus MRSA5 = test: microbe, parasite or virus in culture; type: cell-based; settings: Staphylococcus aureus
COS-1 = settings: African green monkey
CHO-K1 = settings: Chinese hamster
E. faecalis 29212 = test: microbe, parasite or virus in culture; type: cell-based; settings: Enterococcus faecalis
16S rRNA = settings: cited from earlier work
[4] = system: Peptidoglycan synthesis of S. aureus RN450; test: microbe, parasite or virus in culture; type: cell-based; settings: Staphylococcus aureus; for IC50: read-out: Peptidoglycan synthesis IC50; for IC90: read-out: Peptidoglycan synthesis IC90
S. aureus RN4250 = test: microbe, parasite or virus in culture; type: cell-based; settings: for MIC: Staphylococcus aureus, RN4250
protein synthesis = settings: cited from earlier work
S. pneumoniae 157E [5] = test: microbe, parasite or virus in culture; type: cell-based; settings: Streptococcus pneumoniae
S. aureus RN450 = test: microbe, parasite or virus in culture; type: cell-based; settings: Staphylococcus aureus
[6] = system: Protein synthesis of S. aureus RN450; test: microbe, parasite or virus in culture; type: cell-based; settings: for IC50 / IC90: Staphylococcus aureus; for IC50: read-out: Protein synthesis IC50; for IC90: read-out: Protein synthesis IC90

Compound | PD50 (S. pneumoniae 700905 [1]; po) [mg/kg] | PD50 (S. pneumoniae 157E [2]; iv) [mg/kg] | MIC (B. cereus 95/3032) [µg/mL] | MIC (B. cereus 98/2658) [µg/mL] | MIC (B. cereus 97/4144) [µg/mL] | MIC (B. cereus 98/2620) [µg/mL] | MIC (S. pneumoniae 700905 [3]) [µg/mL] | MIC (E. faecium 494) [µg/mL] | MIC (S. aureus MRSA5) [µg/mL] | MIC (E. faecalis 29212) [µg/mL] | effect on reactivity of nucleotides within the 16S rRNA (chemical footprint) (16S rRNA) | IC50 [4] [µg/mL] | IC90 [4] [µg/mL] | MIC (S. aureus RN450) [µg/mL] | IC50 [6] [µg/mL] | IC90 [6] [µg/mL] | further results
O=C(O)c1cn(C2CC2)c2cc(N3CCNCC3)c(F)cc2c1=O [Ciprofloxacin, reference compound] | >50 | >50 |  |  |  |  |  |  |  |  |  |  |  |  |  |  | MIC (B. anthracis Sterne): 0.25 µg/mL (≈ 0.754 µM); MIC (B. anthracis Ame): 0.25 µg/mL (≈ 0.754 µM); MIC (B. anthracis V770): 0.12 µg/mL (≈ 0.362 µM); MIC (B. anthracis Vollum1B): 0.25 µg/mL (≈ 0.754 µM)
CCC[C@@H]1C[C@@H](C(=O)N[C@@H]([C@H]2O[C@H](SC)[C@H](O)[C@@H](O)[C@H]2O)[C@H](C)Cl)N(C)C1 [Clindamycin] |  |  | 0.5 (≈ 1.18 µM) | 0.5 (≈ 1.18 µM) | 0.5 (≈ 1.18 µM) | 0.25 (≈ 0.588 µM) |  |  |  |  |  |  |  |  |  |  | 
CN(C)c1cc(CN2CCC(F)(F)CC2)c(O)c2c1C[C@H]1C[C@H]3[C@H](N(C)C)C(O)=C(C(N)=O)C(=O)[C@@]3(O)C(O)=C1C2=O [Compound H] | 12.7 | 1.1 |  |  |  |  | 0.06 (≈ 0.102 µM) | 0.5 (≈ 0.847 µM) | 0.35 (≈ 0.593 µM) | 0.5 (≈ 0.847 µM) |  |  |  |  |  |  | PD50 (S. pneumoniae 700905 [1]; iv): 2.2 mg/kg; MIC (B. anthracis Sterne): < 0.03 µg/mL; efficacy in model of lung infection in words (S. pneumoniae PBS1339): efficacious; PD50 (S. pneumoniae PBS1339; iv): <5.0 mg/kg; PD50 (S. pneumoniae PBS1339; po): 3.6 mg/kg; MIC (B. anthracis Ame): < 0.03 µg/mL; IV and PO efficacy in words (S. pneumoniae 157E [2]): exhibits IV and PO efficacy; PD50 (S. pneumoniae 157E [2]; po): 5 mg/kg; oral activity in words (S. pneumoniae 157E [2]; po): exhibited oral activity; MIC (B. anthracis V770): < 0.03 µg/mL; Tox50 (COS-1): >100 µg/mL; MIC (B. anthracis Vollum1B): < 0.03 µg/mL; Tox50 (CHO-K1): >100 µg/mL
CC[C@H]1OC(=O)[C@H](C)[C@@H](O[C@H]2C[C@@](C)(OC)[C@@H](O)[C@H](C)O2)[C@H](C)[C@@H](O[C@@H]2O[C@H](C)C[C@H](N(C)C)[C@H]2O)[C@](C)(O)C[C@@H](C)C(=O)[C@H](C)[C@@H](O)[C@]1(C)O [Erythromycin] |  |  | 0.125 (≈ 0.17 µM) | 1 (≈ 1.36 µM) | 0.125 (≈ 0.17 µM) | 0.06 (≈ 0.0818 µM) |  |  |  |  |  |  |  |  |  |  | 
CN(C)c1ccc(O)c2c1C[C@H]1C[C@H]3[C@H](N(C)C)C(O)=C(C(N)=O)C(=O)[C@@]3(O)C(O)=C1C2=O [Minocycline, reference compound] | >50 | 0.53 | ≤ 0.06 | ≤ 0.06 | 0.5 (≈ 1.09 µM) | 0.5 (≈ 1.09 µM) | 8 (≈ 17.5 µM) | 16 (≈ 35 µM) | 2 (≈ 4.37 µM) | 4 (≈ 8.74 µM) | affect the reactivity of nucleotides | 4.6 (≈ 10.1 µM) | 20.9 (≈ 45.7 µM) | 0.25 (≈ 0.546 µM) | < 0.03 | 0.1 (≈ 0.219 µM) | PD50 (S. pneumoniae 700905 [1]; iv): >50 mg/kg; susceptibility in words (S. aureus RN4250): susceptible; MIC (S. aureus RN4250): 0.5 µg/mL (≈ 1.09 µM); PD50 (S. pneumoniae PBS1339; iv): 4.5 mg/kg; PD50 (S. pneumoniae PBS1339; po): 3.6 mg/kg; PD50 (S. pneumoniae 157E [2]; po): 1.5 mg/kg; inhibition of protein synthesis in words (protein synthesis): potent inhibitors of protein synthesis; MIC (S. pneumoniae 157E [5]): 0.06 µg/mL (≈ 0.131 µM)
CN(C)C1C(O)=C(C(N)=O)C(=O)C2(O)C(O)=C3C(=O)c4c(O)cccc4C(C)(O)C3CC12 (centres unmarked) [Tetracycline, reference compound] |  |  | ≤ 0.06 | ≤ 0.06 | 64 (≈ 144 µM) | 32 (≈ 72 µM) | 32 (≈ 72 µM) | 64 (≈ 144 µM) | 32 (≈ 72 µM) | 16 (≈ 36 µM) | affect the reactivity of nucleotides | > 32 | > 32 | 0.06 (≈ 0.135 µM) | < 0.03 | 0.11 (≈ 0.248 µM) | susceptibility in words (S. aureus RN4250): resistant; MIC (S. aureus RN4250): 64 µg/mL (≈ 144 µM); inhibition of protein synthesis in words (protein synthesis): potent inhibitors of protein synthesis; MIC (S. pneumoniae 157E [5]): 0.06 µg/mL (≈ 0.135 µM)
CN(C)c1cc(NC(=O)CNC(C)(C)C)c(O)c2c1C[C@H]1C[C@H]3[C@H](N(C)C)C(O)=C(C(N)=O)C(=O)[C@@]3(O)C(O)=C1C2=O [Tigecycline, reference compound] |  |  |  |  |  |  |  |  |  |  | chemical footprint similar to that of tetracycline | > 32 | > 32 | 2 (≈ 3.41 µM) | 0.12 (≈ 0.205 µM) | 0.68 (≈ 1.16 µM) | macromolecular synthesis profile in words [6]: profile similar to class I compounds
CN[C@H](CC(C)C)C(=O)N[C@H]1C(=O)N[C@@H](CC(N)=O)C(=O)N[C@H]2C(=O)N[C@H]3C(=O)N[C@H](C(=O)N[C@H](C(=O)O)c4cc(O)cc(O)c4-c4cc3ccc4O)[C@H](O)c3ccc(c(Cl)c3)Oc3cc2cc(c3O[C@@H]2O[C@H](CO)[C@@H](O)[C@H](O)[C@H]2O[C@H]2C[C@](C)(N)[C@H](O)[C@H](C)O2)Oc2ccc(cc2Cl)[C@H]1O [Vancomycin] |  |  | 1 (≈ 0.69 µM) | 2 (≈ 1.38 µM) | 1 (≈ 0.69 µM) | 1 (≈ 0.69 µM) |  |  |  |  |  |  |  |  |  |  | 
